The subject of one assay is URAT1CS. Type of assay: cell-based. Conditions: HEK293T cells expressing hURAT1 versus URAT1CS.
The target of the next assay is T1, hURAT1 (Homo sapiens, UniProt Q96S37).
T1 sequence (Q96S37 1-553): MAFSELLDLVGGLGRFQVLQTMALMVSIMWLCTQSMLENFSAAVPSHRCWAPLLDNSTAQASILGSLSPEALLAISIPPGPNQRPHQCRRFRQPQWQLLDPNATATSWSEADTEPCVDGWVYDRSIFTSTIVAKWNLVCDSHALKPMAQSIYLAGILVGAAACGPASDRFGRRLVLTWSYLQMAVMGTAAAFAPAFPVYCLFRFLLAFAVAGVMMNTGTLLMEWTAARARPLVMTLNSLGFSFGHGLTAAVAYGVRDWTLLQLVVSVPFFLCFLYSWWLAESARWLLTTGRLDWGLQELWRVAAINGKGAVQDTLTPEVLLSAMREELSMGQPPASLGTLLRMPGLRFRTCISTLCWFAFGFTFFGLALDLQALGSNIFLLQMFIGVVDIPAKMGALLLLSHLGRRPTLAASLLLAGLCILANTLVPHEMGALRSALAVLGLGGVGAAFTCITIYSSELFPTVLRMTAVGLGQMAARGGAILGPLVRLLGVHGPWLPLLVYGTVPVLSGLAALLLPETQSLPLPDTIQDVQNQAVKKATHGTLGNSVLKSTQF
Format: cell-based. Conditions: for KT urate / Vmax: fit of the data set with this inhibitor, 95% CI; for Mode of inhibition of [14C]-urate uptake: competitive versus non-competitive fits.

Read-outs that look alike come from different tables or passages of the source.

For the compound `CCc1oc2ccccc2c1C(=O)c1cc(Br)c(O)c(Br)c1` [BBR, benzbromarone], the “Inhibitor binding to URAT1CS as judged from IC50” value in the assay with URAT1CS is “high affinity”. Further, the KT urate at hURAT1 (Competitive model) is 26.08 [11.29–48.59] µM; at hURAT1 (Non-competitive model) it was 32.4 [20.7–47.9] µM. Moreover, the Vmax at hURAT1 (Competitive model) was 1591 [1355–1846] pmol min^−1 mg^−1; on hURAT1 (Non-competitive model), 1700 [1530–1881] pmol min^−1 mg^−1. The “Mode of inhibition of [14C]-urate uptake” value on hURAT1 is “non-competitively”.
With `O=C(O)CSc1nnc(Br)n1-c1ccc(C2CC2)c2ccccc12` [LESU, lesinurad], the KT urate was 162.8 [126.4–210.1] µM at hURAT1 (Competitive model) and 175.1 [148.8–206.5] µM on hURAT1 (Non-competitive model). Further, the values for the Vmax at hURAT1 (Competitive model) and at hURAT1 (Non-competitive model) were 3625 [3335–3955] pmol min^−1 mg^−1 and 3725 [3522–3947] pmol min^−1 mg^−1, respectively. Besides, the “Mode of inhibition of [14C]-urate uptake” value on hURAT1 is recorded as “non-competitively”.

The values above are taken from paper PMC12137875 (Nature Communications, 2025).
